According to patent publication US20210177751A1, “HYPOTONIC HYDROGEL FORMULATIONS FOR ENHANCED TRANSPORT OF ACTIVE AGENTS AT MUCOSAL SURFACES” (The Johns Hopkins University, priority 2017, published 2021):

Key:
[1] = tested on: C57/B6 mice; assay: laser-induced choroidal neovascularization (CNV) in mice; format: in vivo, mouse; conditions: topical daily for 7 days
Description: C57/B6 mice where used to test the topical delivery of sunitinib malate (5 uL at 4 mg/mL) and acriflavine (5 uL at 5 mg/mL) in preventing choroidal neovascularization (CNV) in mice after laser induced rupture of Bruch's membrane in three locations. After laser, both drugs either dissolved in 12% F127 or a aqueous vehicle control (saline or water), were dosed daily for 7 days.

[2] = ocular tissue distribution in Dutch belted rabbits (LC-MS); format: in vivo, rabbit; conditions: 4 mg/ml in 12% F127, daily for 14 days; tissues 6 h after final dose
Description: (§1) Sunitnib malate was dissolved in 12% F127 at a concentration of 4 mg/ml and dosed topically to pigmented (Dutch belted) rabbits and pigmented pigs (juvenile farm pigs) once per day for a total of 14 days or 5 days, respectively. Dosing in both rabbits and pigs occurred without anesthesia and 50 uL or 50˜100 uL of an eye drop was administered, respectively. However, dosing in pigs occurred while distracted with food. Tissues were collected 6 h after the final dose for rabbits and 1 h after the final dose for pigs. The drug concentrations were measured by LC-MS.

[3] = ocular tissue distribution in farm pigs (LC-MS); format: in vivo, pig; conditions: 4 mg/ml in 12% F127, daily for 5 days; tissues 1 h after final dose
Description: as §1

[4] = tested on: retinal ganglion cells (RGCs); assay: optic nerve crush with once weekly topical dosing; format: in vivo, rat (Brown Norway); conditions: Day 22
Description: Pigmented rats (Brown Norway) were dosed topically (5 uL at 4 mg/mL) with sunitinib malate in 12% F127 or in saline once weekly unilaterally. The optic nerve head was exposed and crushed unilaterally on Day 8 and the contralateral eye was used as the control for comparison. 14 days after crushing the nerve (Day 22), the tissues were isolated for qPCR for genes expressed by retinal ganglion cells (RGCs).

[5] = tested on: retinal ganglion cells (RGCs); assay: optic nerve crush after 5 daily topical doses, pigmented rats; format: in vivo, rat (Brown Norway); conditions: in 12% F127, daily for 5 days before crush; 14 days after crush; pigmented rats (Brown Norway)
Description: Rats were dosed topically with sunitinib malate (5 uL at 4 mg/mL) in 12% F127 daily for 5 days unilaterally. Then, the optic nerve head was exposed and crushed unilaterally and the contralateral eye was used as the control for comparison. 14 days after crushing the nerve (without additional topical dosing), the tissues were isolated for qPCR for genes expressed by retinal ganglion cells (RGCs).

[6] = dissolved in aqueous vehicle control (saline or water)

| Compound | suppression of choroidal neovascularization ([1]; dissolved in 12% F127) | suppression of choroidal neovascularization [1, 6] | sunitinib and N-desethyl sunitinib levels in ocular tissues and fluids [2] | sunitinib and N-desethyl sunitinib levels in ocular tissues and fluids [3] | protection of RGCs (qPCR for RGC genes) ([4]; in 12% F127, once weekly) | protection of RGCs (qPCR for RGC genes) ([4]; in saline, once weekly) | protection of RGCs (qPCR for RGC genes) [5] |
| --- | --- | --- | --- | --- | --- | --- | --- |
| CCN(CC)CCNC(=O)c1c(C)[nH]c(/C=C2\C(=O)Nc3ccc(F)cc32)c1C [sunitinib malate] | efficacious in suppressing neovascularization in the choroid | Only the formulations containing 12% F127 were efficacious | Therapeutically relevant levels of drug were found in the anterior and posterior segments | Therapeutically relevant levels of drug were found in the anterior and posterior segments | Protection of RGCs was only observed when sunitinib malate was dosed in 12% F127 | not when sunitinib malate was dosed in saline | protection of RGCs |
| acriflavine | efficacious in suppressing neovascularization in the choroid | Only the formulations containing 12% F127 were efficacious | – | – | – | – | – |
